Test results taken from ChEMBL document CHEMBL1136188, “1H-Pyrazolo-[3,4-c]cyclophepta[1,2-c]thiophenes: a unique structural class of dopamine D4 selective ligands” (Bioorg Med Chem Lett, 2003).

How the values were obtained:
D(4) dopamine receptor [1] = biological target: T1, D(4) dopamine receptor (Homo sapiens, UniProt P21917); test: Binding affinity to recombinant human dopamine receptor D4
T1 sequence (P21917 whole entry): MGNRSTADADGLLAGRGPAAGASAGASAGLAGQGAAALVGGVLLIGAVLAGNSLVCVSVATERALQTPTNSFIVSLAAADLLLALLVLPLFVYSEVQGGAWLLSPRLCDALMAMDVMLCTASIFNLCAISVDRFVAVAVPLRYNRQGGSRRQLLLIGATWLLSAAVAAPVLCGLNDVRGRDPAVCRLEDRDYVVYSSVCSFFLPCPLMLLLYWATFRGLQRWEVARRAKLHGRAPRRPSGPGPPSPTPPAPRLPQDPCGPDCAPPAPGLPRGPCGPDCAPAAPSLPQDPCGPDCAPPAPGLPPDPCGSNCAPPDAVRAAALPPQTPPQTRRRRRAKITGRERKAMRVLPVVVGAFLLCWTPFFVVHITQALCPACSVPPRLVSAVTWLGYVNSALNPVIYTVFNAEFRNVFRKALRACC

D(2) dopamine receptor = D(2) dopamine receptor (Homo sapiens, UniProt P14416); test: Binding affinity towards cloned human Dopamine receptor D2 was determined
Chain of D(2) dopamine receptor (P14416 whole entry): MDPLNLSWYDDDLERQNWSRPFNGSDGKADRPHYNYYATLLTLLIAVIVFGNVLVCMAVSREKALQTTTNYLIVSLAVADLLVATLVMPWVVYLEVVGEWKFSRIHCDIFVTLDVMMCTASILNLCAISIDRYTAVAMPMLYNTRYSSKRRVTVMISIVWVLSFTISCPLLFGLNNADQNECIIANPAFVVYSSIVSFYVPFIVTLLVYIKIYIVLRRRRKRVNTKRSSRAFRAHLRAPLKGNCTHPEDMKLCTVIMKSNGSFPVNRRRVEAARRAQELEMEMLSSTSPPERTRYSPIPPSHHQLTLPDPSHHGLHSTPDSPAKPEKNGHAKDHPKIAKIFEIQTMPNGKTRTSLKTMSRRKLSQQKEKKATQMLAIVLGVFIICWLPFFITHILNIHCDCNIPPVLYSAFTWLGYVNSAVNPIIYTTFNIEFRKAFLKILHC

[2] = Half life in human microsomes; assay type: ADME, Microsome
[3] = biological target: T2, Adrenergic receptor alpha-1 (Homo sapiens, UniProt P35348+P25100+P35368); test: Binding affinity towards cloned human Alpha-1 adrenergic receptor was determined; assay type: protein assay
T2 sequence (P35348 whole entry): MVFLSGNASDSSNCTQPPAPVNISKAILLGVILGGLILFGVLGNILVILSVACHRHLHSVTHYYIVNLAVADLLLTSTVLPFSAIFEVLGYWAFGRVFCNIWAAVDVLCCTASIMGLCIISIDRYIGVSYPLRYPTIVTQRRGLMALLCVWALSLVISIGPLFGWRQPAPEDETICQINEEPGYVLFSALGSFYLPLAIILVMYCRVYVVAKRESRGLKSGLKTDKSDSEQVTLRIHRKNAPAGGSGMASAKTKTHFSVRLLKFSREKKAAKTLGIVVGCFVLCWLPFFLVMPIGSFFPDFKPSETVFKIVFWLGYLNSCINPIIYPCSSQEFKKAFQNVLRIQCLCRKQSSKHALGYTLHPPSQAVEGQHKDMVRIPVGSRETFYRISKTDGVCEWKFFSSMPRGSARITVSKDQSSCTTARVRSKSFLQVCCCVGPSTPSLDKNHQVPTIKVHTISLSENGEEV
T2 sequence (P25100 whole entry): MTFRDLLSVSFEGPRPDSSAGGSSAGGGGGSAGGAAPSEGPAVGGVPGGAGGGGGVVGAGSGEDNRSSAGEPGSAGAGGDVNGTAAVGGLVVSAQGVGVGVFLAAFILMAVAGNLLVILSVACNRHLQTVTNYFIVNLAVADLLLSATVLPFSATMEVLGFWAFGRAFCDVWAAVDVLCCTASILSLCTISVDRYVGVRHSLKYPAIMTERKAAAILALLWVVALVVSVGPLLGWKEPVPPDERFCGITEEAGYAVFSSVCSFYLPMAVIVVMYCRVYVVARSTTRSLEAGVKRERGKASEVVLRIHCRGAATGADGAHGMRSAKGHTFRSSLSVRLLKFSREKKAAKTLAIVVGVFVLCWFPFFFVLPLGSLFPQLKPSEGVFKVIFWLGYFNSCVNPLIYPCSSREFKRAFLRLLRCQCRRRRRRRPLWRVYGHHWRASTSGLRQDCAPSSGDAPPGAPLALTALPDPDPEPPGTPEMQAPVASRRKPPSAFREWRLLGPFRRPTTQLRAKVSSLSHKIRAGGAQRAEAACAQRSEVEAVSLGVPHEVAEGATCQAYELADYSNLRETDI
T2 sequence (P35368 whole entry): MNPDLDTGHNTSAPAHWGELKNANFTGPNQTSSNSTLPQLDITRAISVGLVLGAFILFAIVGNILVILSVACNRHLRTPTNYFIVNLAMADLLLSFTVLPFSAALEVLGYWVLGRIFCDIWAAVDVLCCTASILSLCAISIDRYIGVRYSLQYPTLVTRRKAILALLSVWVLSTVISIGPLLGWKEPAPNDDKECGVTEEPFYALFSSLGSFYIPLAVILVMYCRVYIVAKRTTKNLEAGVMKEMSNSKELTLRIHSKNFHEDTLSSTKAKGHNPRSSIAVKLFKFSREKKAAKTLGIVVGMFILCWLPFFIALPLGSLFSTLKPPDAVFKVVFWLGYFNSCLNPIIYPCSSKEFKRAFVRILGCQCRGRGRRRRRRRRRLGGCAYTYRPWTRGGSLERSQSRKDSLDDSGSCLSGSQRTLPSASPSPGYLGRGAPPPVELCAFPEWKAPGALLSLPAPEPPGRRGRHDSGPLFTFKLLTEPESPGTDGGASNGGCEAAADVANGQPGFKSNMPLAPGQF

[4] = mLogP was determined; assay type: physicochemical; conditions: octanol/water; read-out: mLog P
[5] = biological target: T3, 5-hydroxytryptamine receptor 1A (Homo sapiens, UniProt P08908); test: Binding affinity towards cloned human 5-hydroxytryptamine 1A receptor was determined
T3 sequence (P08908 whole entry): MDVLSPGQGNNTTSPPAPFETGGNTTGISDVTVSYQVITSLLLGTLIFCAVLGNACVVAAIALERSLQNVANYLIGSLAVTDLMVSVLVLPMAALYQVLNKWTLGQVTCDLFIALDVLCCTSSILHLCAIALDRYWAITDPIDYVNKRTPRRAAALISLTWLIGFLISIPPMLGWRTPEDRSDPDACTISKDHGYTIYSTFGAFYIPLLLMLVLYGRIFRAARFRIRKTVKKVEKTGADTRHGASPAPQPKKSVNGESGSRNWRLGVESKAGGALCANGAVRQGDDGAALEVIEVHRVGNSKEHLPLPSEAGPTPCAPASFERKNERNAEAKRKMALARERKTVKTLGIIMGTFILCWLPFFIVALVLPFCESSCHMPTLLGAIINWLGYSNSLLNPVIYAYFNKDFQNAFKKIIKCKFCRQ

D(3) dopamine receptor = D(3) dopamine receptor (Homo sapiens, UniProt P35462); test: Binding affinity towards cloned human Dopamine receptor D3 was determined
Chain of D(3) dopamine receptor (P35462 whole entry): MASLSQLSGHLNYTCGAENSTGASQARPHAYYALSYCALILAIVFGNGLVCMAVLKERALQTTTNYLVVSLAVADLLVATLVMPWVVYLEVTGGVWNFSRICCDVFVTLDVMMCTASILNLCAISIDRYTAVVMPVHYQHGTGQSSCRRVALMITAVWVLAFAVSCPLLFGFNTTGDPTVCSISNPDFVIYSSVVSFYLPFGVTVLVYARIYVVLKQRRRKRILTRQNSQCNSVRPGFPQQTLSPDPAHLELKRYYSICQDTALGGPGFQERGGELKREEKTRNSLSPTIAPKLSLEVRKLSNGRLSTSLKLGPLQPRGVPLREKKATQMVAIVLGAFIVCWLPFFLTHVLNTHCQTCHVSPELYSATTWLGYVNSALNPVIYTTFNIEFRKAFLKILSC

D(4) dopamine receptor [6] = biological target: T1, D(4) dopamine receptor; test: Antagonistic activity against human Dopamine receptor D4.2 using [35S]GTP-gamma-S binding assay
[7] = biological target: Serotonin 2 (5-HT2) receptor (Homo sapiens, UniProt P41595+P28223+P28335); test: Binding affinity towards cloned human 5-hydroxytryptamine 2 receptor was determined; assay type: protein assay
D(1A) dopamine receptor = D(1A) dopamine receptor (Homo sapiens, UniProt P21728); test: Binding affinity towards Dopamine receptor D1 was determined
Chain of D(1A) dopamine receptor (P21728 whole entry): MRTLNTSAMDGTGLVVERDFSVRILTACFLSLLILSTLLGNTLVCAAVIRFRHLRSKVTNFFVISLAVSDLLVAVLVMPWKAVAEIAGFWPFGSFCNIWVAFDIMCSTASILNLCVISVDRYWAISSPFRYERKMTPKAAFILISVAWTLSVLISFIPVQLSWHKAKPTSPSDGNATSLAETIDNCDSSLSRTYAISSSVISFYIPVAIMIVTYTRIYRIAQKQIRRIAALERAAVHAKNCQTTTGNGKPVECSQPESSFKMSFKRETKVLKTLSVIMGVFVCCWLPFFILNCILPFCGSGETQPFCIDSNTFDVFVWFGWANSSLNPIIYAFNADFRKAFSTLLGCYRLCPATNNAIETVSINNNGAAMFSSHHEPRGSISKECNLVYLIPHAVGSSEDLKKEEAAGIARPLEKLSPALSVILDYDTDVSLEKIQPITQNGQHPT

D(1B) dopamine receptor = D(1B) dopamine receptor (Homo sapiens, UniProt P21918); test: Binding affinity towards cloned human Dopamine receptor D5 was determined
Chain of D(1B) dopamine receptor (P21918 whole entry): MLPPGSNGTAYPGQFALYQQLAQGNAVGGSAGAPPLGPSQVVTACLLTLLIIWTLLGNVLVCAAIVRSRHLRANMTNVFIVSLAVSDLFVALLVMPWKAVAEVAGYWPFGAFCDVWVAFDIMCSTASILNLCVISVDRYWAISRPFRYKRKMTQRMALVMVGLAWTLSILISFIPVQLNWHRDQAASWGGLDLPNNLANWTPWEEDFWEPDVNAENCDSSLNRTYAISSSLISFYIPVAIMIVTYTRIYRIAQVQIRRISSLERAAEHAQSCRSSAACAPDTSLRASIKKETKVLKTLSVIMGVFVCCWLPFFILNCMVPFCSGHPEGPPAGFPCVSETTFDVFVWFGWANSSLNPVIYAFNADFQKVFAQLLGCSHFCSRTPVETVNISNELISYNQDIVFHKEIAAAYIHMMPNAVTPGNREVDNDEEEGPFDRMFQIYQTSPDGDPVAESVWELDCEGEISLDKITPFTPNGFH

[8] = biological target: T4, Adrenergic receptor alpha-2 (Homo sapiens, UniProt P08913+P18825+P18089); test: Binding affinity towards cloned human Alpha-2 adrenergic receptor was determined; assay type: protein assay
T4 sequence (P08913 whole entry): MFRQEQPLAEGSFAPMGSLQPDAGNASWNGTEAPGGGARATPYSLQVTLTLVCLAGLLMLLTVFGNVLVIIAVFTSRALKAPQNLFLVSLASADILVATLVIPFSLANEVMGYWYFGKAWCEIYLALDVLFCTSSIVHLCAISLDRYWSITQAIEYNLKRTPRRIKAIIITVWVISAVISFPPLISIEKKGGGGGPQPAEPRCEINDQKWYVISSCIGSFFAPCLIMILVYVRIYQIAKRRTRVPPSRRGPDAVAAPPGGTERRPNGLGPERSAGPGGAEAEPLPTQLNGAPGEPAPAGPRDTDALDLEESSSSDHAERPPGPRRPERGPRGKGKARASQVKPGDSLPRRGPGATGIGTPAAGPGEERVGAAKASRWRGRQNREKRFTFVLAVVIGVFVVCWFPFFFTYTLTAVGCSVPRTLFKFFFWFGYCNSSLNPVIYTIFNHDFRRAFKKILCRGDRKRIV
T4 sequence (P18825 whole entry): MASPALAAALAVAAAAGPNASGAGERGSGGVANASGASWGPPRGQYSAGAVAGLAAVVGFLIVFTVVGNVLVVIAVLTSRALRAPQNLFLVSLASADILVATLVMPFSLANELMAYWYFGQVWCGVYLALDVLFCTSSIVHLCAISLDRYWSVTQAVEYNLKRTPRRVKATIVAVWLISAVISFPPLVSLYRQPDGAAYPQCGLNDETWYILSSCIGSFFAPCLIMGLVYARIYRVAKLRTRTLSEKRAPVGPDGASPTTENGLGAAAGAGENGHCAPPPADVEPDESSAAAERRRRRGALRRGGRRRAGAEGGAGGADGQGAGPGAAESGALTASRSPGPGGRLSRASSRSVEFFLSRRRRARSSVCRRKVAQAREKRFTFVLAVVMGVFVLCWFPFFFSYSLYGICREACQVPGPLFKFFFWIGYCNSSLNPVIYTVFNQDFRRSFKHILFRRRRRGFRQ
T4 sequence (P18089 whole entry): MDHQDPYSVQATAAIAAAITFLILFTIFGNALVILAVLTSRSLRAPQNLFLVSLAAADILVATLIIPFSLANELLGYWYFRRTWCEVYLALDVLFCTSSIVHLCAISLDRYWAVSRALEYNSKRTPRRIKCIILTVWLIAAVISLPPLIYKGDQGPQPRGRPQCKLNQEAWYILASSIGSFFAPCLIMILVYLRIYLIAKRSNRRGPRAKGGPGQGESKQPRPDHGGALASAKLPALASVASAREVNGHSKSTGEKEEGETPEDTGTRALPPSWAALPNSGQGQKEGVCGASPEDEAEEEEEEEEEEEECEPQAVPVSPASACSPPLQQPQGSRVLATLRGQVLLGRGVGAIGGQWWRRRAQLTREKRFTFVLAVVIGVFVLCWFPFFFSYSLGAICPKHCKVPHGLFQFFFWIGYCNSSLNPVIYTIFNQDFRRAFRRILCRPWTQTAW

[9] = biological target: T5, D(4) dopamine receptor (Homo sapiens) (UniProt P21917); test: Association constant towards cloned human dopamine D4 receptor was determined
T5 sequence (whole entry): T1 sequence (P21917 whole entry)

SMILES	Ki (D(4) dopamine receptor [1])	Ki (D(2) dopamine receptor)	also measured
Cc1sc(C)c2c1CCc1c[nH]nc1-2	170 nM		
Cn1cc2c(n1)-c1ccccc1CCC2	507 nM	> 10000 nM	
Cc1sc(C)c2c1CCCc1cnn(C(C)C)c1-2	138 nM	555 nM	
Cc1sc(C)c2c1CCCc1cn(C)nc1-2	228 nM	641 nM	
CCCn1ncc2c1-c1c(Cl)sc(Cl)c1CCC2	3550 nM	> 10000 nM	
Cc1sc(C)c2c1CCCc1nccn1-2	301 nM	> 10000 nM	
Cc1sc(C)c2c1CC(C)(C)Cc1c[nH]nc1-2	1300 nM	> 10000 nM	
Cc1sc(C)c2c1CCCc1c[nH]nc1-2	12 nM	2070 nM	half-life [2]: 6 min; Ki [3]: > 10000 nM; logP [4]: 2.48; Ki [5]: > 1000 nM; Ki (D(3) dopamine receptor): > 10000 nM; EC50 (D(4) dopamine receptor [6]): 9 nM; Ki [7]: 2087 nM; Ki (D(1A) dopamine receptor): > 10000 nM; Ki (D(1B) dopamine receptor): > 10000 nM; Ki [8]: > 7800 nM
Cc1sc(C)c2c1CCCc1ncn(C)c1-2	1290 nM	> 10000 nM	
Cc1oc(C)c2c1CCCc1cnn(C)c1-2	11 nM	28 nM	
c1ccc2c(c1)CCCc1c[nH]nc1-2	> 10000 nM	> 10000 nM	
Cn1ncc2c1-c1ccccc1CCC2	> 10000 nM	> 10000 nM	
CCn1ncc2c1-c1c(Cl)sc(Cl)c1CCC2	168 nM	489 nM	
Cc1sc(C)c2c1CCCc1cnn(-c3ccccc3)c1-2	1580 nM	> 10000 nM	
Clc1sc(Cl)c2c1CCCc1cnn(Cc3ccccc3)c1-2	> 10000 nM	> 10000 nM	
Cc1oc(C)c2c1CCCc1c[nH]nc1-2	275 nM		
Cc1sc(C)c2c1CCCc1cnn(C)c1-2	2 nM	176 nM	
CCn1ncc2c1-c1c(C)sc(C)c1CCC2	22 nM	402 nM	
Cc1sc(C)c2c1CCc1cnn(C)c1-2	26 nM	462 nM	
CC(C)n1ncc2c1-c1c(Cl)sc(Cl)c1CCC2	1560 nM	> 10000 nM	
Cc1sc(C)c2c1CCCc1nncn1-2	4320 nM	> 10000 nM	
Cc1sc(C)c2c1CCCc1nnc(C)n1-2	462 nM	> 10000 nM	
Cc1sc(C)c2c1SCc1cnn(C)c1-2	3 nM	111 nM	half-life [2]: < 1 min; pKa [9]: 3.06
Cc1sc(C)c2c1CCCc1c-2n[nH]c1CN(C)C	2560 nM		
Cc1ccc(C)c2c1CCCc1c[nH]nc1-2	425 nM	> 10000 nM	
Cc1sc(C)c2c1CCc1cn(C)nc1-2	2870 nM		
Cn1ncc2c1-c1c(Cl)sc(Cl)c1CCC2	14 nM	416 nM	
CCCn1ncc2c1-c1c(C)sc(C)c1CCC2	97 nM	885 nM	
Clc1sc(Cl)c2c1CCCc1c[nH]nc1-2	169 nM	534 nM	
Cc1sc(C)c2c1CN(C)Cc1c[nH]nc1-2	> 10000 nM		
